# Data as given in ChEMBL document CHEMBL1149416, “Design, synthesis, and biological evaluation of BODIPY-erythromycin probes for bacterial ribosomes” (Bioorg Med Chem Lett, 2006).
# pIC50, pKd: −log10 of the molar value.
# Columns and labels:
# Escherichia coli [1] = test: Inhibition of ribosome function in a coupled transcription and translational assay using Escherichia coli S30 extracts; format: functional, organism-based
# Escherichia coli [2] = test: Binding affinity to 70S bacterial ribosome isolated from Escherichia coli; format: functional
Compound,pIC50 (Escherichia coli [1]),pKd (Escherichia coli [2])
CC[C@H]1OC(=O)[C@H](C)[C@@H](O[C@H]2C[C@@](C)(OC)[C@@H](OC(=O)NCCNC(=O)CCC3=CC4=Cc5c(C)cc(C)n5[B-](F)(F)[N+]4=C3)[C@H](C)O2)[C@H](C)[C@@H](O[C@@H]2O[C@H](C)C[C@H](N(C)C)[C@H]2O)[C@](C)(OC)C[C@@H](C)C(=O)[C@H](C)[C@@H](O)[C@]1(C)O,6.80,> 9.30
CC[C@H]1OC(=O)[C@H](C)[C@@H](O[C@H]2C[C@@](C)(OC)[C@@H](O)[C@H](C)O2)[C@H](C)[C@@H](O[C@@H]2O[C@H](C)C[C@H](N(C)C)[C@H]2O)[C@](C)(O)C[C@@H](C)[C@H](NC(=O)CCC2=CC3=Cc4c(C)cc(C)n4[B-](F)(F)[N+]3=C2)[C@H](C)[C@@H](O)[C@]1(C)O,5.82,7.52
CC[C@H]1OC(=O)[C@H](C)[C@@H](O[C@H]2C[C@@](C)(OC)[C@@H](OC(=O)NCCNC(=O)CCC3=CC4=Cc5c(C)cc(C)n5[B-](F)(F)[N+]4=C3)[C@H](C)O2)[C@H](C)[C@@H](O[C@@H]2O[C@H](C)C[C@H](N(C)C)[C@H]2O)[C@](C)(O)C[C@@H](C)[C@H](NC(=O)OCc2ccccc2)[C@H](C)[C@@H](O)[C@]1(C)O,6.26,8.82
CC[C@H]1OC(=O)[C@H](C)[C@@H](O[C@H]2C[C@@](C)(OC)[C@@H](O)[C@H](C)O2)[C@H](C)[C@@H](O[C@@H]2O[C@H](C)C[C@H](N(C)C)[C@H]2O)[C@](C)(O)C[C@@H](C)C(=O)[C@H](C)[C@@H](O)[C@]1(C)O [ERYTHROMYCIN],7.10,–
